Laboratory results taken from publication PMC12526004, “Tiliroside Suppresses Uric Acid Production in Hepatocytes and Attenuates Purine-Induced Hyperuricemia in Male ICR Mice” (Molecules, 2025).

Legend:
[1] = test system: hepatic XO protein expression; assay: Western blot of hepatic XO protein expression; format: in vivo, male ICR mice; conditions: three days, normalized to GAPDH
Protocol: The antihyperuricemic effect of tiliroside was evaluated using mice with purine-induced hyperuricemia, following a previously described procedure. […] The test compounds were suspended in 0.2 mL of 0.5% CMC-Na based on the average body weight of each group. The actual volume administered was adjusted according to the individual body weight of each mouse. Prior to each administration, the mice were fasted for four hours. The negative and hyperuricemic control groups received the vehicle (0.5% CMC-Na) alone. […] GMP and IMP were dissolved in 0.2 mL of PBS (–) based on the average body weight of all mice. The injection volume was similarly adjusted according to each mouse’s body weight. These injections were performed one hour after the final oral administration of the test compounds or vehicle. The negative control group received PBS (–) alone. […] The liver and kidneys were then excised. Blood samples were centrifuged at 5000× g for 10 min at 4 °C to obtain plasma, which was stored at −80 °C until analysis. Liver samples preparation was performed according to the methods previously described. Each portion of the liver tissue was processed for a specific analysis. One portion was homogenized in ice-cold 100 mM Tris-HCl buffer (pH 7.5), followed by sonication and centrifugation at 10,000× g for 5 min at 4 °C. The resulting supernatant was collected for the determination of UA levels. […]

[2] = test system: mice with purine-induced hyperuricemia; assay: Plasma UA in mice with purine-induced hyperuricemia; format: in vivo, male ICR mice; conditions: three days; for effect on plasma UA increase / effect on plasma UA levels: vs hyperuricemic control
Protocol: The antihyperuricemic effect of tiliroside was evaluated using mice with purine-induced hyperuricemia, following a previously described procedure. […] The test compounds were suspended in 0.2 mL of 0.5% CMC-Na based on the average body weight of each group. The actual volume administered was adjusted according to the individual body weight of each mouse. Prior to each administration, the mice were fasted for four hours. The negative and hyperuricemic control groups received the vehicle (0.5% CMC-Na) alone. […] GMP and IMP were dissolved in 0.2 mL of PBS (–) based on the average body weight of all mice. The injection volume was similarly adjusted according to each mouse’s body weight. These injections were performed one hour after the final oral administration of the test compounds or vehicle. The negative control group received PBS (–) alone. […] The liver and kidneys were then excised. Blood samples were centrifuged at 5000× g for 10 min at 4 °C to obtain plasma, which was stored at −80 °C until analysis. UA concentrations in plasma and liver homogenates were determined using the uricase-based Uric Acid C-Test Wako. Protein concentrations in the liver samples were measured with the Pierce™ BCA Protein Assay Kit. Liver UA levels were expressed as milligrams per gram of liver protein (mg/g protein).

hepatic XO = target: T1, hepatic XO (Mus musculus, UniProt Q00519); assay: Hepatic XO activity in hyperuricemic model mice; format: in vivo, male ICR mice; conditions: three days, mean ± SEM
T1 construct: 40 µL of liver homogenate was mixed with 30 µL of ice-cold 100 mM Tris-HCl buffer; from tissue; host or cells: liver of male ICR mice (homogenate supernatant)
T1 sequence (Q00519 whole entry): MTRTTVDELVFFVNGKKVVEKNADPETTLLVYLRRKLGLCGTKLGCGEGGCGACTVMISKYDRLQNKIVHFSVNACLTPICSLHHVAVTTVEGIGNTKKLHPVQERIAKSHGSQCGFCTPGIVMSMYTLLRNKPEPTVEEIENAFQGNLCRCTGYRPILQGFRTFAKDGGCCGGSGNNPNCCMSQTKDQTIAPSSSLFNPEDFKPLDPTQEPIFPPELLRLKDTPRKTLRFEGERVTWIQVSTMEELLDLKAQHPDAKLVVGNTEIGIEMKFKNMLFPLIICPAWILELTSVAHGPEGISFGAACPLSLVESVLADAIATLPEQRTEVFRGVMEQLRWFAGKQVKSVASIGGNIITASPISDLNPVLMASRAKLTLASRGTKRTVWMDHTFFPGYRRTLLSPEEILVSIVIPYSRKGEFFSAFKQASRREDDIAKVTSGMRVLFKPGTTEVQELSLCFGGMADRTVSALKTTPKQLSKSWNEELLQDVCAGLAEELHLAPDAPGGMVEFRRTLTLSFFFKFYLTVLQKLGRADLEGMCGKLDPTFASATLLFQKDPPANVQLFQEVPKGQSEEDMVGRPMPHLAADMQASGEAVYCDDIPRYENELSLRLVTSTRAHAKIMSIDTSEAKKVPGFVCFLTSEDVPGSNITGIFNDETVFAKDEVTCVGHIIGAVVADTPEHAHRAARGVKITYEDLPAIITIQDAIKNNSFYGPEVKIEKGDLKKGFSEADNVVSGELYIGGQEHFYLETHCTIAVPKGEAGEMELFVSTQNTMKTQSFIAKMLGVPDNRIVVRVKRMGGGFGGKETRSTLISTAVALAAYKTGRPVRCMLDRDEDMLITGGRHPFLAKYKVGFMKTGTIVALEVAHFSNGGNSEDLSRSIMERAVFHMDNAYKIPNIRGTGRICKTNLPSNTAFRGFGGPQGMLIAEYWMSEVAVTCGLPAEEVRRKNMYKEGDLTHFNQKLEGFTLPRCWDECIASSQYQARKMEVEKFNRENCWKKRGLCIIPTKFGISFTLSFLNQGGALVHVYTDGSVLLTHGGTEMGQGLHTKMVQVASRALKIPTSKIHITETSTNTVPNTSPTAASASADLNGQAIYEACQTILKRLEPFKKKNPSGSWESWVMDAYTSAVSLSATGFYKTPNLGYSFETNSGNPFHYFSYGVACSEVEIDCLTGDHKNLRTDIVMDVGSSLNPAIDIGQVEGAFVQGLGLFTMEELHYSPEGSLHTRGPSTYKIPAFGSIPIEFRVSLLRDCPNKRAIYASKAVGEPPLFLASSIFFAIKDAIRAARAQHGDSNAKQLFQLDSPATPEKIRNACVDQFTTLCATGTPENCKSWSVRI
Protocol: The test compounds were suspended in 0.2 mL of 0.5% CMC-Na based on the average body weight of each group. The actual volume administered was adjusted according to the individual body weight of each mouse. Prior to each administration, the mice were fasted for four hours. The negative and hyperuricemic control groups received the vehicle (0.5% CMC-Na) alone. On the third day of treatment, hyperuricemia was induced by intraperitoneal injection of guanosine monophosphate (GMP) and inosine monophosphate (IMP, both from Tokyo Chemical Industry, Tokyo, Japan), each at a dose of 300 mg/kg body weight, dissolved in PBS (–). GMP and IMP were dissolved in 0.2 mL of PBS (–) based on the average body weight of all mice. The injection volume was similarly adjusted according to each mouse’s body weight. These injections were performed one hour after the final oral administration of the test compounds or vehicle. The negative control group received PBS (–) alone. […] The liver and kidneys were then excised. Blood samples were centrifuged at 5000× g for 10 min at 4 °C to obtain plasma, which was stored at −80 °C until analysis.
Liver samples preparation was performed according to the methods previously described [27]. Each portion of the liver tissue was processed for a specific analysis. One portion was homogenized in ice-cold 100 mM Tris-HCl buffer (pH 7.5), followed by sonication and centrifugation at 10,000× g for 5 min at 4 °C. […]
Hepatic XO activity was assessed using a previously reported method [28], with slight modifications to accommodate 96-well microplate measurements [33]. […] The enzymatic reaction was initiated by adding 180 µL of xanthine solution (150 µM in the same buffer), and the absorbance at 295 nm was monitored at 37 °C for 30 min using a Spark 10 M microplate reader. UA formation was quantified based on a standard curve generated with known concentrations of UA. Protein content in the homogenates was determined using the Pierce™ BCA Protein Assay Kit, and XO activity was expressed as micromoles of UA produced per minute per milligram of protein (µmol UA/min/mg protein).

AML12 hepatocytes = assay: Cell viability, WST-8 assay; format: cell-based; conditions: concentrations up to 100 µM, 2 h
Protocol: The viability of AML12 cells was determined using the WST-8 assay provided in the Cell Counting Kit-8 (Dojindo Laboratories, Kumamoto, Japan). Cells were initially seeded at 5 × 10^3 cells per well in 96-well plates and maintained in DMEM/F-12 medium containing 10% (v/v) FBS for 72 h. To induce serum deprivation, the medium was replaced with serum-free DMEM/F-12, and cells were incubated for an additional 24 h. […] The treatment lasted for 2 h. Subsequently, cells were washed again with BSS and incubated with the WST-8 reagent for 1 h. Absorbance was measured at 490 nm using a microplate reader (MTP-310Lab; CORONA […] Co., Ltd., […], Japan). Cell viability was normalized to the DMSO control (0 μM), which was set at 100%.

ABCG2 = assay: Renal mRNA expression, real-time quantitative PCR; format: in vivo, male ICR mice; conditions: 300 mg/kg oral, three days
Protocol: (§1) The antihyperuricemic effect of tiliroside was evaluated using mice with purine-induced hyperuricemia, following a previously described procedure. […] The test compounds were suspended in 0.2 mL of 0.5% CMC-Na based on the average body weight of each group. The actual volume administered was adjusted according to the individual body weight of each mouse. Prior to each administration, the mice were fasted for four hours. The negative and hyperuricemic control groups received the vehicle (0.5% CMC-Na) alone. […] GMP and IMP were dissolved in 0.2 mL of PBS (–) based on the average body weight of all mice. The injection volume was similarly adjusted according to each mouse’s body weight. These injections were performed one hour after the final oral administration of the test compounds or vehicle. The negative control group received PBS (–) alone. […] The liver and kidneys were then excised. Blood samples were centrifuged at 5000× g for 10 min at 4 °C to obtain plasma, which was stored at −80 °C until analysis. To assess renal gene expression, four mice per group were selected based on plasma UA levels approximating the group mean. Total RNA was extracted from kidney tissues of the negative control, hyperuricemic model, allopurinol-treated, and high-dose tiliroside-treated groups using the Trizol-chloroform method (Thermo Fisher Scientific). Reverse transcription was performed with 1 µg of RNA using iScript reverse transcriptase (Bio-Rad, Hercules, CA, USA). Quantitative PCR was conducted using the MyiQ2 real-time PCR system (Bio-Rad), with GAPDH as the reference gene.

GLUT9 = assay: Renal mRNA expression, real-time quantitative PCR; format: in vivo, male ICR mice; conditions: 300 mg/kg oral, three days
Protocol: as §1

ABCC4 = assay: Renal mRNA expression, real-time quantitative PCR; format: in vivo, male ICR mice; conditions: 300 mg/kg oral, three days
Protocol: as §1

Row | SMILES | hepatic XO protein expression ([1]; 10 mg/kg oral) | effect on plasma UA increase ([2]; 10 mg/kg body weight oral) | Hepatic XO Activity (hepatic XO; 50 mg/kg oral) | Hepatic XO Activity (hepatic XO; 100 mg/kg oral) | Hepatic XO Activity (hepatic XO; 300 mg/kg oral) | cytotoxic effects (cell viability) (AML12 hepatocytes) | renal ABCG2 mRNA expression (ABCG2) | renal GLUT9 mRNA expression (GLUT9) | renal ABCC4 mRNA expression (ABCC4) | hepatic XO protein expression ([1]; all tested doses (50, 100, and 300 mg/kg) oral) | effect on plasma UA levels ([2]; 50 mg/kg body weight oral) | effect on plasma UA levels ([2]; 100 mg/kg body weight oral) | effect on plasma UA increase ([2]; 300 mg/kg body weight oral) | lowering of plasma UA level ([2]; 300 mg/kg oral, hyperuricemic mice)
1 | Oc1ncnc2[nH]ncc12 [Allopurinol, allopurinol, reference compound] | No statistically significant differences | significantly reduced |  |  |  |  |  |  |  |  |  |  |  | 
2 | O=C(/C=C/c1ccc(O)cc1)OC[C@H]1O[C@@H](Oc2c(-c3ccc(O)cc3)oc3cc(O)cc(O)c3c2=O)[C@H](O)[C@@H](O)[C@@H]1O [Tiliroside, kaempferol-3-O-(6′′-p-coumaroyl)-glucoside] |  |  | 0.70 ± 0.08 µmol UA/min/mg Protein | 0.82 ± 0.06 µmol UA/min/mg Protein | 0.67 ± 0.07 µmol UA/min/mg Protein | did not exhibit any cytotoxic effects | did not affect | did not affect | did not affect | No statistically significant differences | failed to produce a statistically significant reduction | failed to produce a statistically significant reduction | significantly reduced | approximately 30%
